Data as given in patent US12037350B2, “Compositions and methods for the prevention and/or treatment of mitochondrial disease, including Friedreich's ataxia” (Stealth BioTherapeutics Inc., priority 2020, dated 2024).

What was measured:
[1] = system: frataxin deficient fibroblasts (GM03665) from Friedreich's ataxia patient; test: Frataxin Deficient Fibroblast Viability Assay (BSO Assay); assay type: cell-based; conditions: for EC50: Homo sapiens, Fibroblast, FA patient fibroblasts pretreated with compound, BSO 10 mM, MTT after 48 hrs
Description: Example 12: Frataxin Deficient Fibroblast Viability Assay (the “BSO Assay”)
This Example was used to evaluate the various new compositions for their potential efficacy in the treatment of Friedreich's Ataxia (FA or FRDA)—substantially as described in the above cited Reference (Matthias et al.).
The stock solutions of the test articles (and control compounds) were prepared in dimethyl sulfoxide (DMSO at 10 mM), Working stock solutions (2 times concentrated) were prepared on the day of the experiment in respective cell culture medium to be used for assay (detailed medium description below). A listing of compounds used as test articles in this Example 12 are found in Table 1, below.
A patient derived frataxin deficient fibroblast cell line was obtained from Coriell Institute. More specifically, the following cell lines/DNA samples were obtained from the NIGMS Human Genetic Cell Repository at the Coriell Institute for Medical Research: GM03665. To evaluate importance of various growth conditions on cell susceptibility to BSO toxicity cells were grown on:
MEM (Sigma-Aldrich) 15% Fetal Bovine Serum (FBS) without growth factors;
MEM (Sigma-Aldrich) 15% FBS with growth factors (Catalogue number 100-18B, Recombinant Human FGF-basic (154 a.a.) and catalogue number AF-100-15, Animal-Free Recombinant Human EGF from Peprotech);
MEM199/MEM EBS (Bioconcept Ltd.) 10% FBS, insulin 10 μg/ml, L-glutamine 2 mM with growth factors (Catalogue number 100-18B, Recombinant Human FGF-basic (154 a.a.) and catalogue number AF-100-15, Animal-Free Recombinant Human EGF from Peprotech).
To conduct an experiment, fibroblast cells (from all growth conditions) were seeded (100 μL (cells 3×10^3/well) on 96-well plates in MEM199/MEM EBS medium 10% FBS, insulin 10 μg/mL, L-glutamine 2 mM with growth factors and allowed to grow on plate for 24 hrs. After 24 hrs., media was removed and then test compounds of interest were added (100 μL, 2 times concentrated stock) to 96-well plates (end DM80 concentration not exceeding 0.5%) and incubated for 24 hours. Then L-buthionine-sulfoximine (BSO, from Acros Organics, Cat. No. 235520010) was added (100 μL, 2 times concentrated stock) at end concentrations ranging from 1 to 10 mM. Both test compounds and BSO were dissolved in MEM199/MEM EBS medium 10% FBS, insulin 10 μg/mL, L-glutamine 2 mM with growth factors. Cell viability was monitored and either after 24- or 48-hours cell viability was assayed by MTT (Thiazolyl blue tetrazolium bromide) assay. For the MTT assay, media was removed and 100 μL of MTT 1 mg/mL was added, incubated for 2 hours at +37° C., then medium was removed and 100 μL of isopropanol added to dissolve sediment. Absorption was measured at 570 (OD570) and 650 (QD650) nm wavelengths. Control cells (vehicle instead of BSO and compound) and vehicle control (with BSO, but vehicle instead of test compound) were treated in the same manner as ceils with BSO and compound. All cell media contained penicillin and streptomycin 100 U/mL each.
Absorption readouts were processed as follows: ValueΔ=ValueOD570−ValueOD650 and the obtained values were used to calculate cell viability as % of control cell (i.e., no BSO, no compound, just vehicle) viability.
Except as otherwise indicated in Table 1, all samples were run in at least 3 replicates for test compounds and at least 8 replicates for controls (i.e., both control (no BSO, no compound) and vehicle control (i.e., with BSO, no compound). Exact N per data points are indicated in the figures/table legends. Results for the compounds (test articles and controls) tested are listed in Table 1, below.
This is a cell-based assay measuring cytotoxicity which results from oxidative stress subsequent to depletion of endogenous glutathione defense mechanisms. The cells were primary Friedreich Ataxia (FA) patient fibroblasts which were incubated for 48 hrs. in BSO, an inhibitor of gamma glutamyl synthetase, an enzyme required for glutathione production. […]

[2] = system: GM03665 cells (fibroblasts from a subject with Friedreich's ataxia); test: RSL-3 Toxicity Assay (RSL-3 Assay); assay type: cell-based, human; conditions: Homo sapiens, Fibroblast; GM03665 cells, RSL-3 2 μM, 24 hours, MTT
Text: Example 14: RSL-3 Toxicity Assay (RSL-3 Assay)
This assay has been adapted from: Hinman, A., Holst, C. R., Latham, J. C., Bruegger, J. J., Ulas, G., McCusker, K. P., Amagata, A., Davis, D., Hoff, K. G., Kahn-Kirby, A. H., Kim, V., Kosaka, Y., Lee, E., Malone, S. A., Mei, J. J., Richards, S. J., Rivera, V., Miller, G., Trimmer, J. K., Shrader, W. D., “Vitamin E hydroquinone is an endogenous regulator of ferroptosis via redox control of 15-lipoxygenase”, (2018) PLoS ONE 13(8): e0201369.
In brief, GM03665 cells (Coriell Institute) were seeded in 96-well plates (Sarstedt) in DMEM cell culture media containing 10% Fetal Bovine serum and 1% Penicillin-Streptomycin (Pen-Strep) antibiotic mix at the amount of 2×10^4/mL (100 μL or 2×10^3 cells per well). Cells were left to rest overnight at 37° C. in a humidified atmosphere with 5% CO2 to allow attachment of the cells to the culture plate. Test compounds were prepared as DMSO stocks (10 mM) and were serially diluted in cell culture media to obtain 2× working solutions. Cell media was discarded and replaced by 50 μL of test compound solutions or cell media with vehicle for control wells. Within 15 minutes, 2× working solution (4 μM) of 1S,3R-RSL-3 (CAS #1219810-16-8, Sigma-Aldrich) (diluted from 5 mM DMSO stock in cell culture media) was added. Final reaction volume was 100 μL and final DMSO concentration in reaction was kept below 0.2% (v/v) and equal in all wells. Final RSL-3 concentration was 2 μM and test compound final concentrations in reaction were up to 1000 nM. After 24 hours of incubation cell viability was assessed by MTT test. MTT (Sigma-Aldrich) solution 1 mg/mL in IX PBS (pH=7.4) was prepared 1 hour before the assay and filtered through Filtropur S 0.2 filters (Sarstedt). Cell media with test compounds was discarded and 100 μL of MTT solution was added to cells. The plates were incubated for 2 hours at +37° C. Thereafter, the MTT solution was removed and 100 μL of isopropanol was added to dissolve sediment. Absorption at 570 and 650 nm was measured using Hidex Sense microplate reader.
Compounds A and B and idebenone were not examined in this assay. The data presented in Table 1 indicates omaveloxolone was not active in this assay but that vatiquinone was active.
Discussion—Both BSO and RSL-3 are frequently utilized to induce the regulated cell death pathway known as ferroptosis. Ferroptosis is thought to require the joint activity of iron catalyzed oxidative stress and lipid peroxidation and has been described in cell and animal models of multiple neurodegenerative diseases, including Friedreich's Ataxia, Huntington Disease, Parkinson Disease and Alzheimer's Disease. […] Of note, the results for Compounds C-I and K were favorable with respect to inhibition of ferroptotic cell death when either BSO or RSL3 were used as initiating stimulus, differentiating these compounds from omaveloxolone and idebenone.

[3] = system: HepG2 cells; test: Rotenone Oxygraph Assay (high-resolution respirometry of intact HepG2 cells); assay type: cell-based, human; conditions: Homo sapiens; intact HepG2 cells, rotenone 1 μM, compound 10 μM, increase in respiration rate
Description: Example 15: Rotenone Oxygraph Assay (High-Resolution Respirometry of Intact HepG2 Cells)
The Oxygraph-2k (O2k, OROBOROS INSTRUMENTS, Austria) was used for measurements of respiration of intact cells. The respirometry was performed in Dulbecco's Modified Eagle Medium (DMEM) high glucose without supplements. All experiments were performed at 37° C.
HepG2 cells (ATCC collection code HB-8065™) were cultured in 10 cm^2 culture dishes in DMEM high glucose medium supplemented with 10% fetal bovine serum (FBS) and 100 units/mL penicillin and 100 μg/mL streptomycin until approximately 90% confluence was reached. Immediately prior to performing the respirometric assay, the cells were washed with media without FBS, trypsinized and resuspended in DMEM high glucose without FBS.
The final concentration of intact cells in the O2k-chamber was 0.5-10^6/mL. After stabilization of respiration, the Complex I inhibitor, rotenone, at 1 μM final concentration was added to inhibit electron flux via Complex I. Then, compound to be tested was added at 10 μM final concentration, and the change in respiration rate of intact cells was monitored. […]

[4] = system: HepG2 human hepatocarcinoma cells; test: Rotenone ATP Assay (Complex I by-pass assay); assay type: cell-based
Description: Example 13: Rotenone ATP Assay (a Complex I by-Pass Assay)
This assay has been adapted from Haefeli R H, Erb M, Gemperli A C, Robay D, Courdier Fruh I, et al. (2011) NQO1-Dependent Redox Cycling of Idebenone: Effects on Cellular Redox Potential and Energy Levels. PLoS ONE 6(3): e17963. HepG2 human hepatocarcinoma cells are co-incubated with the electron transport chain complex I toxin rotenone +/− compounds of interest and the corresponding effect on ATP synthesis is measured with a bioluminescent substrate.
The stock solutions of the test articles (See Table 1, below for a list of the test articles examined using this assay) were prepared in dimethyl sulfoxide (DMSO at 10 mM). Working stock solutions were prepared on the day of the experiment in glucose free, serum free Dulbecco's modified Eagles medium (DMEM) supplemented with 50 micromolar rotenone.
In brief, HepG2 cells were plated at 25,000 cells per well in low glucose (1 gram/Liter) DMEM medium+10% fetal calf serum and incubated for 24 hours. The following day, the media was decanted and subsequently replaced with glucose free/serum free DMEM which has been supplemented with 50 micromolar rotenone and compound of interest. Serial dilutions of compound were prepared in 3× dilutions beginning at 25 micromolar. The cells were incubated for 60 minutes in a humidified tissue culture incubator. Following incubation, ATP levels were quantified via bioluminescent assay (Promega […] Glo Assay kit) and readings were captured on a standard microplate reader.
ATP bioluminescence is plotted versus the log of compound of interest and data are used to generate EC50 values. Curve fitting is performed using a sigmoidal dose response curve fit function (GraphPad Prism software).
EC50 values were derived from seven-point dose response curves performed on n=3 technical replicates per dose. Robustness of curve fit was assessed as a quality control measure, with an R squared value of at least 0.80 being required for a successful curve fit. Compounds of interest showing an increase in ATP bioluminescence relative to vehicle control were verified in an independent biological replicate of n=3 technical replicates per dose.
This assay is a direct measure of the ability of compounds of interest to restore ATP production under conditions of inhibition of Complex I of the mitochondrial electron transport chain. As the majority of ATP produced via the electron transport chain is thought to derive from Complex I activity, significant impairment in Complex I function has dire biological consequences. Of note, Complex I mutations are thought to drive pathophysiology in multiple mitochondrial diseases, including Leigh syndrome and Leber's Hereditary Optic Neuropathy (LHON), while diminished Complex I activity and the resultant attenuation of ATP production has been shown in neurodegenerative diseases, including Friedreich's Ataxia, Parkinson's Disease and Huntington's Disease. In brief, most compounds were tested in the Rotenone Oxygraph Assay instead of this assay but only Idebenone was active amongst Omaveloxolone, Idebenone and Vatiquinone.

CC1=C(C)C(=O)C(C/C=C(\C)CC/C=C(\C)CCC=C(F)F)=C(C)C1=O [Compound A, 2-((2E,6E)-11,11-difluoro-3,7-dimethylundeca-2,6,10-trien-1-yl)-3,5,6-trimethylcyclohexa-2,5-diene-1,4-dione]
protection against BSO induced cell death (in words) ([1]; BSO Assay, text statement): best of the test compounds | EC50 [1]: 67.1 nM

CCCCCCCCCCC1=C(C)C(=O)C(OC)=C(OC)C1=O [Compound D, reference compound]
EC50 [2]: 70 nM | activation at 10 µM [3]: 30% | EC50 [1]: 159 nM

COC1=C(OC)C(=O)C(CCCCCC(F)(F)F)=C(C)C1=O [Compound E, 2,3-dimethoxy-5-methyl-6-(6,6,6-trifluorohexyl)cyclohexa-2,5-diene-1,4-dione]
EC50 [2]: 135 nM | activation at 10 µM [3]: 49% | EC50 [1]: 359 nM

CCCCCCCC1=C(C)C(=O)C(OC)=C(OC)C1=O [Compound H, 2-heptyl-5,6-dimethoxy-3-methylcyclohexa-2,5-diene-1,4-dione]
EC50 [2]: 56 nM | activation at 10 µM [3]: 41.8% | EC50 [1]: 241 nM

COC1=C(OC)C(=O)C(CCCC(F)(F)F)=C(C)C1=O [Compound I, 2,3-dimethoxy-5-methyl-6-(4,4,4-trifluorobutyl)cyclohexa-2,5-diene-1,4-dione]
EC50 [2]: 479 nM | activation at 10 µM [3]: 37.8% | EC50 [1]: 772 nM

COC1=C(OC)C(=O)C(C/C=C(\C)CC/C=C(\C)CCC=C(F)F)=C(C)C1=O [Compound B, 2-((2E,6E)-11,11-difluoro-3,7-dimethylundeca-2,6,10-trien-1-yl)-5,6-dimethoxy-3-methylcyclohexa-2,5-diene-1,4-dione]
Complex I by-pass activity in Rotenone ATP Assay (in words) [4]: comparable to that of Idebenone | EC50 ([4]; Homo sapiens, 1 h, HepG2, 50 micromolar rotenone, 60 minutes, ATP bioluminescence): 1020 nM | EC50 [1]: 199 nM

COC1=C(OC)C(=O)C(CCCCCCF)=C(C)C1=O [Compound G, 2-(6-fluorohexyl)-5,6-dimethoxy-3-methylcyclohexa-2,5-diene-1,4-dione]
EC50 [2]: 205 nM | activation at 10 µM [3]: 42.7% | EC50 [1]: 555 nM

COC1=C(OC)C(=O)C(CCCCCC(F)F)=C(C)C1=O [Compound F, 2-(6,6-difluorohexyl)-5,6-dimethoxy-3-methylcyclohexa-2,5-diene-1,4-dione]
EC50 [2]: 146 nM | activation at 10 µM [3]: 44.7% | EC50 [1]: 689 nM

COC1=C(OC)C(=O)C(CCC[Si](C)(C)C)=C(C)C1=O [Compound K, 2,3-dimethoxy-5-methyl-6-(3-(trimethylsilyl)propyl)cyclohexa-2,5-diene-1,4-dione]
EC50 [2]: 75 nM | activation at 10 µM [3]: 41.4%
